{"source": "patent US8653031B2", "about": "“Process for the preparation of compositions of AT1 receptor antagonist and Angiotensin—(1-7)” (Universidade Federal de Minas Gerais, priority 2006, dated 2014)", "key": {"[1]": {"tested_on": "spontaneously hypertensive rats (SHR)", "test": "Antihypertensive test: blood pressure recorded by telemetry in SHR after oral administration", "assay_type": "in vivo, rat", "protocol": "Male, spontaneously hypertensive rats (SHR) were used, with initial age of 14-16 weeks, from the Centro de Bioterismo (CEBIO, Federal University of Minas Gerais). The animals were kept with free access to food and water and were submitted to a light-dark cycle (12 hours each).\nAfter anesthesia with tribromoethanol (0.25 g/Kg body weight), trichotomy of the abdominal region and local asepsis was made. After adjustment of the surgical field, a median incision of 4 to 6 cm was performed in the abdomen with the implantation of the transducer catheter in the abdominal aorta. After surgery, a veterinary pentabiotic was administered (0.1 ml) via intramuscular route (i.m.). […]\nRecords of the cardiovascular parameters, average blood pressure and heart rate were obtained by a telemetry data acquisition system (Data Science International). This monitoring system consists of 4 basic elements: (A) a sensor catheter (model—TA11PA-C40) which was inserted into the animal's abdominal aorta for collection, processing and transmission of pulsatile blood pressure; (B) a receiving signal plate (RPC-1); (C) a muliplexor that received the signal from several receiving plates and sent them to (D) the data acquisition system itself, which collected, stored and analyzed the data by means of a specific software, ART-Gold v. […]\nThe acute cardiovascular effects of administering the LA compound were determined. […]"}, "ACE": {"target": "ACE (Homo sapiens, UniProt P12821)", "sequence (P12821 30-1306, species assumed)": "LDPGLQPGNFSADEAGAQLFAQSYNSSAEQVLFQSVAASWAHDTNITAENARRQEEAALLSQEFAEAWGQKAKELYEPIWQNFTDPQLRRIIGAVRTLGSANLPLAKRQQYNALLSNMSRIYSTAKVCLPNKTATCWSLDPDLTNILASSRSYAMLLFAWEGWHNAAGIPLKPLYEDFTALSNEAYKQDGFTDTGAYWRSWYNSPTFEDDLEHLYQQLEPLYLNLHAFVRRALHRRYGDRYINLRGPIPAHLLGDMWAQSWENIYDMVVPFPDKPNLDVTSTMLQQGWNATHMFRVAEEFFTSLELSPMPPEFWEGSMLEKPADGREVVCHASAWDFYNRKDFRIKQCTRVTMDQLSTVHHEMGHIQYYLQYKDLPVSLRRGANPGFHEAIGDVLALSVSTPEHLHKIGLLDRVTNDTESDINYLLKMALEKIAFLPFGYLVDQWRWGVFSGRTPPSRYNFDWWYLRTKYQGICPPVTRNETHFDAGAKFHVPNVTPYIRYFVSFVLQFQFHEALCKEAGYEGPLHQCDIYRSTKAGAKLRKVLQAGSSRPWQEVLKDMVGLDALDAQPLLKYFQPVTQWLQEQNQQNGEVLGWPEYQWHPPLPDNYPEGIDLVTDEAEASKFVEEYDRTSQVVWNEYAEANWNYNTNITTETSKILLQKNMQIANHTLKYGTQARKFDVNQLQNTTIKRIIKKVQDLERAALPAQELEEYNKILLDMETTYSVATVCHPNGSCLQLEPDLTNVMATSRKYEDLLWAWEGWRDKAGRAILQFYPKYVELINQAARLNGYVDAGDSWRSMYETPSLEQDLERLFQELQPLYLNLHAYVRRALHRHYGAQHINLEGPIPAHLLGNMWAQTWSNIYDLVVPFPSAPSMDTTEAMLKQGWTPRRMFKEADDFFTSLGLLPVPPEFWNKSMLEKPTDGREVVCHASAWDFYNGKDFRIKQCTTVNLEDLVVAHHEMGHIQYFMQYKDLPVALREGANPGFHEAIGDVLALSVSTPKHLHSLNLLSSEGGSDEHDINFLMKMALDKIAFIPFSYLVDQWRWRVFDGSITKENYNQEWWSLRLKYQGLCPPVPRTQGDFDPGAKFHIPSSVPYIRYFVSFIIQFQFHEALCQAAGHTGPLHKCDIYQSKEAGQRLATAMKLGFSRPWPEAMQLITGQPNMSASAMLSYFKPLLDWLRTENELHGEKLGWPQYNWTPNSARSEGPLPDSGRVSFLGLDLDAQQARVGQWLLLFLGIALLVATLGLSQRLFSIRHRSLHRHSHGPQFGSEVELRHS", "conditions": "read-out: IC50 for ACE inhibition; cited from earlier work"}}}
{"compound": "CCCCc1nc(Cl)c(CO)n1Cc1ccc(-c2ccccc2-c2nn[nH]n2)cc1", "note": "[losartan]", "values": [{"measurement": "reduction in the average blood pressure", "setting": "[1]; n=2, single oral dose equivalent to 1 mg Kg/day of losartan, after 5 hours (maximum for test compound)", "value": "−10", "unit": "mmHg"}, {"measurement": "duration of the blood pressure lowering effect", "setting": "[1]; single oral dose equivalent to 1 mg Kg/day of losartan", "value": 12, "unit": "h"}]}
{"compound": "DRVYIHP [Ang-(1-7), Asp-Arg-Val-Tyr-Ile-His-Pro, heptapeptide of the renin-angiotensin system]", "values": [{"measurement": "IC50", "setting": "ACE", "value": "~1000", "unit": "nM"}]}
